Among the data in BindingDB's records for patent US20240025884 (Dong-A St Co., 2024) are IC50 values, retold here.

As a reminder, the IC50 is the concentration that inhibits the measured activity by half. A higher IC50 goes with weaker potency in that assay.

Some results are limits rather than exact numbers.

The target in this assay is eIF-2-alpha kinase GCN2 (Homo sapiens, UniProt Q9P2K8). Description: Biochemical Assay. As for the experimental part: 384-well (Greiner #784075) (or 1536-well [Greiner #782075]) plates containing 60 nl (or 20 nl for 1536-well) of compound in 100% DMSO (10 concentrations serially diluted 3.16-fold) were prepared. Two copies of plates were used one for the GCN2 assay and a second for an artifact plate. Working reagents were prepared as follows reaction buffer: Tris pH 7.5 20 mM, MgCl2 5 mM, DTT 1 mM, Brij-35 0.005%, EGTA 0.5 mM in water; 2 enzyme solution: GCN2 (produced in-house) 1.6 nM in reaction buffer; 2 substrate solution: GFP-eIFS1 (Thermo Fisher Scientific, PV4809) 50 nM, ATP 0.2 mM, tRNA 0.4 mg/ml in reaction buffer; p-GFP-eIF2S1 (artifact) solution: p-GFP-eIFS1 (produced by incubation of 100 nM GFP-eIF2S1 in reaction buffer with 100 uM ATP and 1 nM PERK KD enzyme for 3 hr at room temperature) 2 nM in reaction buffer; 3 stop/antibody solution: p-GFP-EIF2S1 Th-Ab (Thermo Fisher Scientific, PV4816) 6 nM, AZ13933939 3 uM, BSA 3% in reaction buffer. Reagents were loaded onto a liquid dispenser (Certus FLEX, Trajan Scientific and Medical), and 3 ul (1 ul for 1536-well) of 2 enzyme solution, followed by 3 ul (1 ul for 1536-well) of 2 substrate solution was added to the plates. When small numbers of plates were processed, the enzyme solution was added first to all plates, then the valve used for the substrate solution was primed immediately prior to use. […]
Chain of eIF-2-alpha kinase GCN2 (Q9P2K8 whole entry): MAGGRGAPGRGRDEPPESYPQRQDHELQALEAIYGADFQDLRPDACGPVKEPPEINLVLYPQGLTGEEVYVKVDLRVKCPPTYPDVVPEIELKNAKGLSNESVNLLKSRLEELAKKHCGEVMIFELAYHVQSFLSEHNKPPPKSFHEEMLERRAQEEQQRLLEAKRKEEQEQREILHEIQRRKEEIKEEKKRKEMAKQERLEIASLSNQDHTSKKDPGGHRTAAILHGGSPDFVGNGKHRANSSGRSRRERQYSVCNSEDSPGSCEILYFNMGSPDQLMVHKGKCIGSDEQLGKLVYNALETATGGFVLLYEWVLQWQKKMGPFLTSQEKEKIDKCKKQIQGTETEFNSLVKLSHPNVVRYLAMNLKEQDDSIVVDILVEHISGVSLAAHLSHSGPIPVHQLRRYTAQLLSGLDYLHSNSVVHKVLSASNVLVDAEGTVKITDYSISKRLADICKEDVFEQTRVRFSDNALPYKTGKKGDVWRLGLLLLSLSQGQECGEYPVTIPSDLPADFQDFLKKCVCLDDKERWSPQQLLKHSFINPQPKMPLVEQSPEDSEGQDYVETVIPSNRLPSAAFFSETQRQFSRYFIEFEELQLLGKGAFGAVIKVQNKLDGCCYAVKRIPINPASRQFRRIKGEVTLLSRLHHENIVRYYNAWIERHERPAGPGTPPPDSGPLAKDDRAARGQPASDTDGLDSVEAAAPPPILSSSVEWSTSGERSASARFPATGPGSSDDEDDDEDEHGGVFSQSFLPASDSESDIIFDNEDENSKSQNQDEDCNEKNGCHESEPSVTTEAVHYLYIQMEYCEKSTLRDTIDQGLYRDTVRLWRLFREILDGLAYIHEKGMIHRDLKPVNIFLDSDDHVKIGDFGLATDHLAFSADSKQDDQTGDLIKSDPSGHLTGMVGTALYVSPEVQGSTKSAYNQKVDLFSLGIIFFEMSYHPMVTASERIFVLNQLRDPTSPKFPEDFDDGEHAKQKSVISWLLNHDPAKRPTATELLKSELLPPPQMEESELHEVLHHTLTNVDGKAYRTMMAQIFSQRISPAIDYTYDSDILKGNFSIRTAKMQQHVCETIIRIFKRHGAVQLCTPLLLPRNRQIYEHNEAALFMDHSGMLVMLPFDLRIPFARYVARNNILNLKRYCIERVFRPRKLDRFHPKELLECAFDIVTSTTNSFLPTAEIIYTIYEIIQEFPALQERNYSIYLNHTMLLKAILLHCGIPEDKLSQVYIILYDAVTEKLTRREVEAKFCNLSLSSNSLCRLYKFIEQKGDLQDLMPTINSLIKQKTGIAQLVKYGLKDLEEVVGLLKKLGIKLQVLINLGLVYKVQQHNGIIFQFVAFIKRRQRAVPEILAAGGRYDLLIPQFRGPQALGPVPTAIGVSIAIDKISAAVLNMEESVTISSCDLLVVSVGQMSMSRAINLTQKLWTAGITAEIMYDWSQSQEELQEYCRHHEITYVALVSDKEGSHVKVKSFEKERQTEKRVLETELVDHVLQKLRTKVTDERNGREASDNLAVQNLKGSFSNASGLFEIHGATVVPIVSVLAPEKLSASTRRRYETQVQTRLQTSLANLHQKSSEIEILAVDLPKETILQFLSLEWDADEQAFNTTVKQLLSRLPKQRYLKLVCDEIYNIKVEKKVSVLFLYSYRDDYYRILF

`Cc1cc(Nc2ncc(Cl)c(-c3c[nH]c4c(NC(=O)CN5CC[C@H](Oc6ccnc(NC7CC7)n6)C5)cccc34)n2)nn1C` [US20240025884, Example 10] returned an IC50 of less than 10 nM.

On to `Cc1cnc(Nc2cc(C)n(C)n2)nc1-c1c[nH]c2c(N3Cc4c(/C=C/C(=O)NC(C)C)cccc4C3=O)cccc12` [US20240025884, Example 370], for which the IC50 was less than 10 nM.
